Laboratory results as given in patent US20260217683A1, “PYRIDAZINONE HETEROCYCLIC COMPOUND MYOSIN II INHIBITOR AND USE THEREOF” (Xizang Haisco Pharmaceutical Co., Ltd., priority 2023, published 2026).

How the values were obtained:
smooth muscle myosin S1 = target: T1, smooth muscle myosin S1 (Gallus gallus, UniProt P10587); test: Inhibition of hydrolysis of ATP by smooth muscle myosin S1 fragments; assay type: biochemical; conditions: 100 μM compound
T1 construct: purchased Cytoskeleton #CS-MYS05
Outline: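 Smooth muscle myosin S1 fragment (0.7 mg/mL in PM12 buffer with 1 mM DTT) was mixed with compound and F-actin polymer prepared from cardiac actin, then 5 mM ATP working solution started the reaction at 37° C. for 20 min. Released Pi was measured with CytoPhos reagent at 650 nm against a standard curve, and inhibition was calculated relative to positive control wells.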

CYP1A2 = target: T2, CYP1A2 (Homo sapiens, UniProt P05177); test: CYP450 enzyme inhibition, human liver microsomes, CYP1A2; assay type: in vitro ADME
T2 construct: incubated with human liver microsomes and test compounds of different concentrations; from tissue; host or cells: human liver microsomes
T2 sequence (P05177 1-516): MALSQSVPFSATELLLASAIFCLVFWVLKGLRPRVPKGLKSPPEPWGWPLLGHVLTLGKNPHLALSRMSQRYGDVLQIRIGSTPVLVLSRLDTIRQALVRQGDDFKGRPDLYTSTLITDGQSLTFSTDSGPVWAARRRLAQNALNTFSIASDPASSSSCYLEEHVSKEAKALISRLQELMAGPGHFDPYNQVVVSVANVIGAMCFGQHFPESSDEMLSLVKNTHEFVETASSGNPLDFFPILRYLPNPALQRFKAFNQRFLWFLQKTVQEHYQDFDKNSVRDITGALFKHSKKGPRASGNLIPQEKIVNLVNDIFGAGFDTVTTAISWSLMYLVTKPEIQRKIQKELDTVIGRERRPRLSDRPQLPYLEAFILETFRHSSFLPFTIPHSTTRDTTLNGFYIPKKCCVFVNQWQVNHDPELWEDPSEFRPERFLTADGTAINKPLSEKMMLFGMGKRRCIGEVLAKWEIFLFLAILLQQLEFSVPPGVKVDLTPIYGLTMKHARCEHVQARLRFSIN
Experimental: The purpose of this study was to evaluate the effect of the test compound on the activity of five isoenzymes (CYP1A2, CYP2C9, CYP2C19, CYP2D6 and CYP3A4) of human liver microsomal cytochrome P450 (CYP) by using an in vitro testing system. The specific probe substrates of CYP450 isoenzymes were incubated with human liver microsomes and test compounds of different concentrations, and reduced nicotinamide adenine dinucleotide phosphate (NADPH) was added to initiate the reaction. After the completion of the reaction, the sample was treated and liquid chromatography-tandem mass spectrometry (LC-MS/MS) was used to quantitatively detect metabolites produced by specific substrates, changes in CYP enzyme activity were determined, and IC50 value was calculated to evaluate the inhibitory potential of the test compound on each CYP enzyme subtype.

[1] = Pharmacokinetic experiment in mice; assay type: in vivo; conditions: male, C57, po; mouse plasma, i.g. (10 mg/kg)
Experimental: 1. Experimental animals: Male C57 mice, 22-25 g, 6 mice/compound. Purchased from Chengdu Ddossy Experimental Animals Co., Ltd.
2. Experimental design: On the day of the experiment, 12 C57 mice were randomly grouped according to their body weight. The animals were fasted with water available for 12 to 14 h one day before the administration and were fed 4 h after the administration.
Before and after the administration, 0.06 mL of blood was taken from the orbit of the animals under isoflurane anesthesia and placed in an EDTAK2 centrifuge tube. The blood was centrifuged at 5000 rpm and 4° C. for 10 min to collect the plasma. The blood collection time points for the intravenous group and intragastric administration group were: 0 m, 5 m, 15 min, 30 min, 1 h, 2 h, 4 h, 7 h and 24 h. Before analysis and detection, all samples were stored at −80° C., and a quantitative analysis of samples was performed using LC-MS/MS.

T1 sequence (P10587 84-789 limits assumed): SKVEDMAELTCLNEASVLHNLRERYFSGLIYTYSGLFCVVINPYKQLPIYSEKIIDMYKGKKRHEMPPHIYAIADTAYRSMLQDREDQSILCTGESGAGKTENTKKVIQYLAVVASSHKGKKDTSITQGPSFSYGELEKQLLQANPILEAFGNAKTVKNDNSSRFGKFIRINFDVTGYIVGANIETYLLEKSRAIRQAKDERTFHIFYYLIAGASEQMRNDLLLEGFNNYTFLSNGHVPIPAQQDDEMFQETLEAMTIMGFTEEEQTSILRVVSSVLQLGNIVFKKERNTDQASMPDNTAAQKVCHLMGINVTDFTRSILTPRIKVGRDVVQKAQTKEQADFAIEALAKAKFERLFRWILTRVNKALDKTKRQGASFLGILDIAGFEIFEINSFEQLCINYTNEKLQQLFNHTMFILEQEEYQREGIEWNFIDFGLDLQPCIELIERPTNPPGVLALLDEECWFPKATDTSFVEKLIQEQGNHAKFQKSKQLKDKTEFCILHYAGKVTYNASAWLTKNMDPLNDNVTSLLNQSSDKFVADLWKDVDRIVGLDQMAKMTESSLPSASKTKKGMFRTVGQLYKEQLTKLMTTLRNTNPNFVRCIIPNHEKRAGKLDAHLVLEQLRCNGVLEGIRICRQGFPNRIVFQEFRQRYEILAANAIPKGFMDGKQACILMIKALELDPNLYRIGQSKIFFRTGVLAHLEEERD
T1 sequence (P02607 whole entry partner, the tested form may be a part): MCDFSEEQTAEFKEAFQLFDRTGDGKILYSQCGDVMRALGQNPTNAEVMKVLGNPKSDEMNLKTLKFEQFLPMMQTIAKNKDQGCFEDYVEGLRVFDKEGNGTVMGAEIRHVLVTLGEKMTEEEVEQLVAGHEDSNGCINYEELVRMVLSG

Structure (SMILES) | inhibition at 100 µM (smooth muscle myosin S1) | IC50 (CYP1A2) | half-life [1] | AUC(0-t) [1] | Cmax [1]
N#CC1(COc2ncc(-c3ccc(=O)n(Cc4ccc5c(c4)C(=O)CC5)n3)cn2)CC1 [Compound 158] | 13% | > 30 µM | – | – | –
O=C1CCc2ccc(Cn3nc(-c4cnc(O[C@@H]5CCOC5)nc4)ccc3=O)cc21 [Compound 149] | 2% | > 30 µM | 52.3 h | – | –
O=C1CCc2c(F)cc(Cn3nc(-c4cnc(OCC(F)F)nc4)ccc3=O)cc21 [Compound 167] | 17% | > 30 µM | – | – | –
O=C1CCc2c(F)cc(Cn3nc(-c4cnc(O[C@H]5CCOC5)nc4)ccc3=O)cc21 [Compound 165] | 12% | > 30 µM | – | – | –
O=C1CCc2ccc(Cn3nc(-c4cnc(OCC(F)F)nc4)ccc3=O)cc21 [Compound 131] | -9% | > 30 µM | 91.1 h | – | –
O=C1CCc2ccc(Cn3nc(-c4cnc(OC5COCC5(F)F)nc4)ccc3=O)cc21 (stereo not shown) [Compound 164] | 17% | > 30 µM | – | – | –
O=C1CCc2ccc(Cn3nc(-c4cnc(OC5CC(F)(F)C5)nc4)ccc3=O)cc21 [Compound 141] | 3% | > 30 µM | – | – | –
O=C1CCc2ccc(Cn3nc(-c4cnc(OCC(F)(F)F)nc4)ccc3=O)cc21 [Compound 88] | – | > 30 µM | 102 h | 2320 ng·h/mL | 324 ng/mL
O=C1CCc2ccc(Cn3nc(-c4cnc(Oc5cncc(Cl)c5)nc4)ccc3=O)cc21 [Compound 151] | 2% | > 30 µM | – | – | –
O=c1ccc(-c2cnc(OCC(F)(F)F)nc2)nn1Cc1ccc2c(c1)CCC2 [Compound 57] | 3.3% | – | – | – | –
O=C1CCc2ccc(Cn3nc(-c4cnc(O[C@H]5CCOC5)nc4)ccc3=O)cc21 [Compound 150] | 4% | – | 40.7 h | – | –
